Reference: patent publication US11045489B2, “Prognostic methods and systems of treatment for acute lymphoblastic leukemia” (MOR RESEARCH APPLICATIONS LTD., priority 2014, dated 2021)

Legend:
Nalm-6 cells [1] = test: Apoptosis by FACS in Nalm-6 cells treated with FK866; type: cell-based; settings: 1 nM, 48 hours
Description: (§1) Nalm-6 cells were treated for 1, 3, and 6 hours with 1 nM FK866 (Sigma) and NAD^+ formation was measured using NAD assay as described. […] To measure the effect of NAD^+ depletion following FK866 treatment on Nalm-6 cells, apoptosis and viability were measured. Nalm-6 cells were treated for 48 hours with 1 nM FK866 and apoptosis was measured using FACS.

Nalm-6 cells [2] = test: Sensitivity to FK866 (NAD+ levels) of NALM-6 cells transfected with miR-451 mimic or inhibitor; type: cell-based; settings: 3 hours
Description: The sensitivity of NALM-6 cells to the NAMPT inhibitor FK866 was measured in cells following transfection with miR-451 mimic or miR-451 inhibitor (FIG. 8). The sensitivity was measured by levels of NAD^+. […] Thus, miR-451 expression can distinguish between patients that could benefit from treatment with NAMPT inhibitors, such as FK866.

Nalm-6 cells [3] = test: NAD assay in Nalm-6 cells treated with FK866; type: cell-based; settings: 1 nM, 1, 3 and 6 hours
Description: (§2) NAMPT is the rate-limiting enzyme in the NAD^+ biosynthetic pathway. Thus, NAD^+ levels in the stimulated cells were measured using a standard NAD^+ assay (Biovision NADH/NAD Quantification Kit).
as §1

Phosphorylated STAT5 = test: Phospho-STAT5 levels by FACS in transfected NALM-6 cells; type: cell-based; settings: NALM-6 cell line
Description: Phosphorylated STAT5 (phospho-STAT5) levels were measured by FACS analysis following transfection of miR-1290 mimic (overexpression) into NALM-6 cell line. An increase of 50% in the levels of pSTAT5 protein is evident in the cells expressing high levels of miR-1290 (FIG. 11).

SOCS4 = SOCS4 protein levels by Western blotting in transfected Nalm6 cells; type: cell-based; settings: Nalm6 cell line, over-expression of miR-1290, Western blotting
Description: Following transfection of miR-1290 mimic (SEQ ID NO: 4, over-expression), miR-1290 inhibitor (SEQ ID NO: 5, silencing), and miR-scramble (control), into the Nalm6 cell line, the protein levels of SOCS4 were measured using Western blotting (p=0.029; FIG. 9). The values shown in the figure are mean±S.D from 3 experiments.

cellular NAD^+ levels = test: NAD+ assay in TPA stimulated cells; type: cell-based
Description: as §2

NAMPT [4] = test: NAMPT expression by FACS after TPA treatment; type: cell-based; settings: Peripheral blood cells, 50 ng/ml TPA, 24 hours
Description: Studies by several investigators have shown that 12-0-tetradecanoylphorbol-13-acetate (TPA) (Sigma) is an extraordinarily potent tumor promoter and stimulates protein kinase C (PKC). Since NAMPT is over-expressed in several tumors, it was believed that it might be possible to achieve NAMPT stimulation by TPA treatment. To test this hypothesis. Peripheral blood cells were treated with 50 ng/ml TPA for 24 hours and NAMPT expression was measured by FACS using a specific NAMPT antibody.

Nalm-6 cells [5] = test: Tumor growth of transfected Nalm-6 cells injected s.c. into NOD/SCID mice; type: in vivo
Description: To further study the putative tumor-suppressive function of hsa-miR-451 in vivo, 10^7 viable Nalm-6 untransfected cells, transfected in vitro with miR-451, or transfected with scrambled control nucleic acid, were injected s.c. into the right flanks of 6-week-old female NOD/SCID mice. […] On day 26, the median tumor volume in the scrambled control mice and the miR-451 mice were 204.69 mm^3 (SE=63.96) and 23.32 mm^3 (SE=13.12) respectively (P=0.019). At the end of the experiment mice were sacrificed and the tumors were weighted. The median tumor weight in the scrambled control mice and the miR-451 mice were 0.0966 gr (SE=0.040) and 0.0159 gr (SE=0.0009) respectively (P=0.046) (FIG. 4C).

NAMPT 3′-UTR = test: Luciferase reporter assay with NAMPT 3′-UTR; type: cell-based; settings: P<0.05
Description: To confirm that NAMPT is a direct target of miR-451, luciferase reporter vectors were generated that contained the NAMPT 3′-UTR (LightSwitch NAMPT 3′UTR Reporter GoClone). Luciferase reporter assays (LightSwitch Luciferase Assay; SwitchGear) were then performed in the presence and absence of miR-451mimic and inhibitor to determine whether NAMPT was a direct downstream target of miR-451. The relative luciferase activity of the reporter that contained NAMPT 3′-UTR was decreased in 80% when miR-451 mimics were transfected.

NAMPT [6] = test: NAMPT expression by FACS in transfected Nalm-6 cells; type: cell-based; settings: P<0.05
Description: To determine the effects of miR-451 on NAMPT expression, Nalm-6 cells were transfected with miR-451 mimic (SEQ ID NO: 2) and miR-451 inhibitor (GeneCopoeia miArrest miR-451, an inhibitor expression clone) and NAMPT expression was measured by FACS analysis using a specific NAMPT antibody.

## O=C(/C=C/c1cccnc1)NCCCCC1CCN(C(=O)c2ccccc2)CC1 [FK866]
Nalm-6 cells [1]
  apoptosis: induced apoptosis
Nalm-6 cells [2]; Nalm-6/miR-451 cells (miR-451 mimic)
  change in NAD+ production after FK866 treatment compared to Nalm-6/miR-NC: less change
Nalm-6 cells [2]; Nalm-6/miR-inhibitor cells, p=0.003
  change in NAD+ production after FK866 treatment compared to Nalm-6/miR-NC: more than 5 fold
Nalm-6 cells [3]
  NAD^+ detection following treatment: gradual decrease

## miR-1290 mimic: miR-1290 mimic (SEQ ID NO: 4, over-expression) transfected into Nalm6 cell line (UGGAUUUUUGGAUCACCUGAUCCAAAAAU; listed as RNA, chemistry not given here)
Phosphorylated STAT5
  increase in the levels of pSTAT5 protein: 50%
SOCS4
  SOCS4 protein levels: down-regulation

## CCCCCCCCCCCCCC(=O)O[C@@H]1[C@@H](C)[C@@]2(O)[C@@H](C=C(CO)C[C@]3(O)C(=O)C(C)=C[C@@H]23)[C@H]2C(C)(C)[C@]12OC(C)=O [TPA, 12-0-tetradecanoylphorbol-13-acetate]
Cellular NAD^+ levels
  cellular NAD^+ levels higher: 2 fold
NAMPT [4]
  increase in NAMPT expression levels: more than 4 folds

## miR-451 mimic: miR-451 mimic (SEQ ID NO: 2) transfected into Nalm-6 cells by electroporation (AAACCGUUACCAUUACUGAGUU; listed as RNA, chemistry not given here; listed as Homo sapiens)
Nalm-6 cells [5]; NOD/SCID mice, Nalm-6/miR-451 cells s.c., versus scrambled miR control
  tumor growth: significantly decreased tumor growth
Nalm-6 cells [5]; day 26, NOD/SCID mice, Nalm-6 cells transfected in vitro, P=0.019 vs scrambled control
  median tumor volume: 23.32 mm^3
Nalm-6 cells [5]; end of the experiment, NOD/SCID mice, P=0.046 vs scrambled control
  median tumor weight: 0.0159 gr
NAMPT 3′-UTR
  relative luciferase activity of NAMPT 3′-UTR reporter decreased: 80%
NAMPT [6]
  NAMPT protein expression decreased by: 46%
